We go through one molecule from patent publication US6054432A, “Means for treating prostate hypertrophy and prostate cancer” (Asta Medica Aktiengesellschaft, priority 1997, dated 2000).

Molecules are shown by their SMILES. Non-standard residues stand in square brackets, D forms with d. Residues, ends and D or L forms follow the SMILES beside them. dPhe(4-Cl) = N[C@H](Cc1ccc(Cl)cc1)C(=O)O; d2Nal = N[C@H](Cc1ccc2ccccc2c1)C(=O)O; dCit = NC(=O)NCCC[C@@H](N)C(=O)O; d3Pal = N[C@H](Cc1cccnc1)C(=O)O

In data set [1] the test system is prostate carcinoma patients. The following applies: cited from earlier work.
The next data set relates to BPH patients. Particulars: 500 μg every 12 hours for 4 weeks, cited from earlier work.
Data set [2] concerns benign prostate hypertrophy (BPH) patients. Nature of the data set: Clinical therapy of BPH with Cetrorelix (Example 1). Type of data set: in vivo, human. Particulars: 4 to 8 weeks therapy regimen. The procedure: Cetrorelix is administered in a dose of 0.5 mg to 2 mg daily for 4 to 8 weeks for the therapy of BPH. A dose of 5 mg to 30 mg, dispensed once per week or every 10 days also over a time period of 4 to 8 weeks as well as one every two weeks or one injection per month of 20 mg to 60 mg can also decisively improve the clinical symptoms and signs. […] The prostate volume decreases by 20 to 40% during the treatment time of 4 to 8 weeks. […] In addition, at least 30% of the patients achieve an improvement of the urine flow of 6 ml/sec with this therapy. This is almost equivalent to an improvement like that associated with the golden standard operation, and in considerably shorter time. […] These clinical benefits continue for at least 3 to 6 months after therapy. This allows a long-term therapy of BPH with only an intermittent treatment of 2 to max. 4 injection cycles over 4 to 8 weeks.
This therapy represents a significant therapeutic advance in the treatment of BPH since it not only achieves an improvement of the clinical symptoms of BPH but also a diminution of the prostate and an improvement of the urine flow like those associated with surgery The protocols of the invention avoid the negative consequences of an operation, e.g. urine incontinence, retrograde ejaculation, blood loss with the consequence of blood transfusions and also the risks of infection associated with surgery.

The mark [3] stands for this setting: 500 μg every 12 hours, end of the 6 weeks of therapy.

On to `CC(=O)N[C@H](Cc1ccc2ccccc2c1)C(=O)N[C@H](Cc1ccc(Cl)cc1)C(=O)N[C@H](Cc1cccnc1)C(=O)N[C@@H](CO)C(=O)N[C@@H](Cc1ccc(O)cc1)C(=O)N[C@H](CCCNC(N)=O)C(=O)N[C@@H](CC(C)C)C(=O)N[C@@H](CCCNC(=N)N)C(=O)N1CCC[C@H]1C(=O)N[C@H](C)C(N)=O` [Cetrorelix] (Ac-[d2Nal][dPhe(4-Cl)][d3Pal]SY[dCit]LRP[dA]-NH2), for which the “testosterone levels, initially” value in data set [1] (500 μg every 12 hours for 6 weeks, all patients, initial phase) was “lowering in testosterone levels to a castration level”. Moreover, in data set [1] (setting [3]), the “overall condition of the patient” value was “considerable improvement” and the “testosterone values at the end of therapy” value is recorded as “at the castration levels”. Further, the “testosterone levels during treatment” value in the data set with BPH patients (BPH patients, no castration values during the last three weeks) is “fluctuated at subnormal levels”. In the data set with BPH patients (all patients, initial phase), the “testosterone levels, initially” value is listed as “lowering in testosterone levels to a castration level”. Also, in the data set on BPH patients, the prostate volume entry is “distinct decrease” and the symptoms of dysuria entry is “distinct decrease”. In data set [2], the “patients achieving an improvement of the urine flow of 6 ml/sec” value is listed as “at least 30%”; the quality of life entry is listed as “significant improvements”; the sexual performance entry is given as “No limitations in sexual performance are observed”; the testosterone level result is given as “Submaximal decreases of testosterone occur, but these are above those levels associated with castration”. Besides, the “increase of the peak flow of the urine” value in data set [2] (comparable to the α-blockers) was “approximately 3 ml/sec”.
